The structures appear in SMILES notation. The source made the active and inactive calls. No cut-off for these calls is given here.

Holding throughout (type): functional
Assay [1] in a line: DPPH radical scavenging activity at 25 uM by ESR spectra. On the technique in general: Loss of DPPH colour is used to gauge radical scavenging.
Assay [2] is described as follows: DPPH radical scavenging activity by ESR spectra.
The nature of assay [3]: DPPH radical scavenging activity at 34.5 uM by ESR spectra.

As for `O=C(O[C@@H]1[C@@H](O)[C@H](Oc2cc(O)c(C(=O)CCc3ccccc3)c(O)c2)O[C@@H]2COC(=O)c3cc(O)c(O)c(O)c3-c3c(cc(O)c(O)c3O)C(=O)O[C@@H]12)c1cc(O)c(O)c(O)c1` [THONNINGIANIN A], the outcome in assay [1] was Active. Further, in assay [2], it took 8 µM to reach half-maximal inhibition (IC50).

In assay [3], `O=C1OC[C@H]2O[C@@H](Oc3cc(O)c(C(=O)CCc4ccccc4)c(O)c3)[C@H](O)[C@@H](O)[C@@H]2OC(=O)c2cc(O)c(O)c(O)c2-c2c1cc(O)c(O)c2O` [THONNINGIANIN B] registered an Activity of 90%. In addition, half-maximal inhibition in assay [2] (IC50) required 21 µM.

For the origin of these results see ChEMBL document CHEMBL1154582, “Thonningianins A and B, new antioxidants from the African medicinal herb Thonningia sanguinea” (J Nat Prod, 2000).
